Laboratory results reported in the kinase profiling compilation of Christmann-Franck et al. (2016).

Columns and labels:
Assay in all cases: KINOMEscan competition binding
MKNK2 (human) = MKNK2 (human) (UniProt Q9HBH9)
[1] = tested on: PIK3CA (human), P42336 [E545K]
ADCK4 (human) = ADCK4 (human) (UniProt Q96D53)
DDR1 (human) = DDR1 (human) (UniProt Q08345)
MAP3K4 (human) = MAP3K4 (human) (UniProt Q9Y6R4)
ACVR2A (human) = ACVR2A (human) (UniProt P27037)
EPHA1 (human) = EPHA1 (human) (UniProt P21709)
CPK1 (P.falciparum) = tested on: CPK1 (P.falciparum)
CDK2 (human) = CDK2 (human) (UniProt P24941)
BMX (human) = BMX (human) (UniProt P51813)
LATS2 (human) = LATS2 (human) (UniProt Q9NRM7)
MAP3K1 (human) = MAP3K1 (human) (UniProt Q13233)
EPHA4 (human) = EPHA4 (human) (UniProt P54764)
LTK (human) = LTK (human) (UniProt P29376)
CDKL1 (human) = CDKL1 (human) (UniProt Q00532)
[2] = tested on: EGFR (human), P00533 [G719S]
OXSR1 (human) = OXSR1 (human) (UniProt O95747)
ZAP70 (human) = ZAP70 (human) (UniProt P43403)
CDK4 CCND1 (human) = CDK4 CCND1 (human) (UniProt P11802+P24385)
PRKACB (human) = PRKACB (human) (UniProt P22694)
CaMK1 (human) = CaMK1 (human) (UniProt Q14012)
[3] = tested on: FLT3 (human), P36888 [D835Y]
RPS6KA4 KD2 (human) = RPS6KA4 KD2 (human) (UniProt O75676)
TNK1 (human) = TNK1 (human) (UniProt Q13470)
PTK6 (human) = PTK6 (human) (UniProt Q13882)
CDKL5 (human) = CDKL5 (human) (UniProt O76039)
PIK3C2B (human) = PIK3C2B (human) (UniProt O00750)
RPS6KA5 KD1 (human) = RPS6KA5 KD1 (human) (UniProt O75582)
EPHB4 (human) = EPHB4 (human) (UniProt P54760)
MAP2K3 (human) = MAP2K3 (human) (UniProt P46734)
PIK3CG (human) = PIK3CG (human) (UniProt P48736)
RPS6KA5 KD2 (human) = RPS6KA5 KD2 (human) (UniProt O75582)
MAPK15 (human) = MAPK15 (human) (UniProt Q8TD08)
RPS6KA6 KD2 (human) = RPS6KA6 KD2 (human) (UniProt Q9UK32)
CDK4 CCND3 (human) = CDK4 CCND3 (human) (UniProt P11802+P30281)
YSK4 (human) = YSK4 (human) (UniProt Q56UN5)
EPHA3 (human) = EPHA3 (human) (UniProt P29320)
IRAK3 (human) = IRAK3 (human) (UniProt Q9Y616)
FLT4 (human) = FLT4 (human) (UniProt P35916)
PRKAA1 (human) = PRKAA1 (human) (UniProt Q13131)
EPHB3 (human) = EPHB3 (human) (UniProt P54753)
SGK110 (human) = SGK110 (human) (UniProt P0C264)
Chain of SGK110 (human) (P0C264 whole entry, looked up): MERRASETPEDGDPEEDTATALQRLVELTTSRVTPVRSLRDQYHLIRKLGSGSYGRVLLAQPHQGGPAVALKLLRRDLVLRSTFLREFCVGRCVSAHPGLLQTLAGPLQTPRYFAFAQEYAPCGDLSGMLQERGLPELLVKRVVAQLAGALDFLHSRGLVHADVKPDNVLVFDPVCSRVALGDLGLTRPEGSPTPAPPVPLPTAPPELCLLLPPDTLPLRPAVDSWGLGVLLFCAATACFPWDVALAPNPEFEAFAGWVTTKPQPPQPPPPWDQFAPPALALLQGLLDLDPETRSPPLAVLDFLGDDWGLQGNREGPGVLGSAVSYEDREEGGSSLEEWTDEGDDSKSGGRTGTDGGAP

Chain of CDKL1 (human) (Q00532 whole entry, looked up): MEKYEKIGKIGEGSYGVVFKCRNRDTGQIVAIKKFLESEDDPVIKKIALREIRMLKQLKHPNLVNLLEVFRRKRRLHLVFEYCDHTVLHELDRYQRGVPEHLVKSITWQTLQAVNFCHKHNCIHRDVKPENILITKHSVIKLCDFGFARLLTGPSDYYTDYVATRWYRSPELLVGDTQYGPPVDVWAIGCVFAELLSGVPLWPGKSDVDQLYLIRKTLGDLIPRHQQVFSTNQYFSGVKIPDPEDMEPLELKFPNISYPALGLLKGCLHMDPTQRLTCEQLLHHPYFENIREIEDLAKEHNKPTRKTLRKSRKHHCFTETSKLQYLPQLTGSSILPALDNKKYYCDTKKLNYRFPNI
Chain of RPS6KA6 KD2 (human) (Q9UK32 whole entry, looked up): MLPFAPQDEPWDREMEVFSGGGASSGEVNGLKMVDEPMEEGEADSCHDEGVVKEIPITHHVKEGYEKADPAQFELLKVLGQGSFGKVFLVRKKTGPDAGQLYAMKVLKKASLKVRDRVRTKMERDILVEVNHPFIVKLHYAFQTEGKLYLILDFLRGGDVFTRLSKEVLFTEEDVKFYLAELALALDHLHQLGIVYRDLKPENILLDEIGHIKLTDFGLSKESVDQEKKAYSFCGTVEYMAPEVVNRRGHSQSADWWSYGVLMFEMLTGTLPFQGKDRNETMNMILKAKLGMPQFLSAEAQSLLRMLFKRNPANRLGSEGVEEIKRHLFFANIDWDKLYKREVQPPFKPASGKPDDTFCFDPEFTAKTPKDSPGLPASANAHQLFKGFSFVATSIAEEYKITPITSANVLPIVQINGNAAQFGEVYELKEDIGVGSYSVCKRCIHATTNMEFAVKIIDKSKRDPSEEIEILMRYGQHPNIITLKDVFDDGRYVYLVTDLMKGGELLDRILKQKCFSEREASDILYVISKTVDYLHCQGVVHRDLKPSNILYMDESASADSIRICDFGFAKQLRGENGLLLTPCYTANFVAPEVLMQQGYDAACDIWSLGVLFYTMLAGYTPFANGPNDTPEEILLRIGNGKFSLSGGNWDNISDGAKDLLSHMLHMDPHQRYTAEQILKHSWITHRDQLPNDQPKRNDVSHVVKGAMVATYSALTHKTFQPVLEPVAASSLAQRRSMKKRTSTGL
Chain of TNK1 (human) (Q13470 whole entry, looked up): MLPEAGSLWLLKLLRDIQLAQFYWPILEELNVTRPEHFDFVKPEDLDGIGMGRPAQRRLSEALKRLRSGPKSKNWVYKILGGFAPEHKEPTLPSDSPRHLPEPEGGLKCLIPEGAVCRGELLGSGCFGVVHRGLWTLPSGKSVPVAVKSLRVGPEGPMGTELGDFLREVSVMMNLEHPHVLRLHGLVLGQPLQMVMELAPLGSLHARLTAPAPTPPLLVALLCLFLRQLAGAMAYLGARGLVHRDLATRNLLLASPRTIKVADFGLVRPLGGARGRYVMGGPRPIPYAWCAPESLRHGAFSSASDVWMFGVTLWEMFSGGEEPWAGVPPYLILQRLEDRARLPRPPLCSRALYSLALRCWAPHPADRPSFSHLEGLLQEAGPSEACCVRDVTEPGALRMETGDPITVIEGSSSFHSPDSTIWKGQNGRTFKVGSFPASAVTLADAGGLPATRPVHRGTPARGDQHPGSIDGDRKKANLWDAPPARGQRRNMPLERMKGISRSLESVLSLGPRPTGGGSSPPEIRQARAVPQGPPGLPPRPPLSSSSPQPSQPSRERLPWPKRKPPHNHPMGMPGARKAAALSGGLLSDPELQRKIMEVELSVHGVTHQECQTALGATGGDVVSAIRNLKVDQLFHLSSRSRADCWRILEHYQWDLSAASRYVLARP
Chain of RPS6KA5 KD2 (human) (O75582 whole entry, looked up): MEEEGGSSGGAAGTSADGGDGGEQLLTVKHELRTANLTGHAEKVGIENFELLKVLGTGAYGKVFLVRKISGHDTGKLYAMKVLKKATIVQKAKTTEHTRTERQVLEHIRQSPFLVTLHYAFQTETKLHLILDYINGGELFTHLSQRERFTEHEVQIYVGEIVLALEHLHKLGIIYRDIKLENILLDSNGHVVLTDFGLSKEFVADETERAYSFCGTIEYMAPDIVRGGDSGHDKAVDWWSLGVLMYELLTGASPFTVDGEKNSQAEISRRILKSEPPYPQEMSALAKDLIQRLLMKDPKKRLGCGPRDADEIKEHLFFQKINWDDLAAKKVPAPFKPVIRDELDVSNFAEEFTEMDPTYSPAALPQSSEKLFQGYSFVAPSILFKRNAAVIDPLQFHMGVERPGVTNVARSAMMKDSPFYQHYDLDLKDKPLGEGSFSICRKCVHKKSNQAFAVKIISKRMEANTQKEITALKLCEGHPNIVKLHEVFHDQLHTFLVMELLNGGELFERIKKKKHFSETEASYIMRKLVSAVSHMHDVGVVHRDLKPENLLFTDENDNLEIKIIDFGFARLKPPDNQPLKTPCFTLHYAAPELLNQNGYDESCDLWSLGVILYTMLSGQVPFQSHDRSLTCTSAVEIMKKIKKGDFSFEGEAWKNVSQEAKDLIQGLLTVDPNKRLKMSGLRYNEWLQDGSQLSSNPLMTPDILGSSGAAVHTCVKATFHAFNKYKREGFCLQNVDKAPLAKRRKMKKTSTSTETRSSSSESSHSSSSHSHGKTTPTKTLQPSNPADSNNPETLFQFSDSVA
Chain of RPS6KA5 KD1 (human) (O75582 whole entry, looked up): as above
Chain of EPHA1 (human) (P21709 whole entry, looked up): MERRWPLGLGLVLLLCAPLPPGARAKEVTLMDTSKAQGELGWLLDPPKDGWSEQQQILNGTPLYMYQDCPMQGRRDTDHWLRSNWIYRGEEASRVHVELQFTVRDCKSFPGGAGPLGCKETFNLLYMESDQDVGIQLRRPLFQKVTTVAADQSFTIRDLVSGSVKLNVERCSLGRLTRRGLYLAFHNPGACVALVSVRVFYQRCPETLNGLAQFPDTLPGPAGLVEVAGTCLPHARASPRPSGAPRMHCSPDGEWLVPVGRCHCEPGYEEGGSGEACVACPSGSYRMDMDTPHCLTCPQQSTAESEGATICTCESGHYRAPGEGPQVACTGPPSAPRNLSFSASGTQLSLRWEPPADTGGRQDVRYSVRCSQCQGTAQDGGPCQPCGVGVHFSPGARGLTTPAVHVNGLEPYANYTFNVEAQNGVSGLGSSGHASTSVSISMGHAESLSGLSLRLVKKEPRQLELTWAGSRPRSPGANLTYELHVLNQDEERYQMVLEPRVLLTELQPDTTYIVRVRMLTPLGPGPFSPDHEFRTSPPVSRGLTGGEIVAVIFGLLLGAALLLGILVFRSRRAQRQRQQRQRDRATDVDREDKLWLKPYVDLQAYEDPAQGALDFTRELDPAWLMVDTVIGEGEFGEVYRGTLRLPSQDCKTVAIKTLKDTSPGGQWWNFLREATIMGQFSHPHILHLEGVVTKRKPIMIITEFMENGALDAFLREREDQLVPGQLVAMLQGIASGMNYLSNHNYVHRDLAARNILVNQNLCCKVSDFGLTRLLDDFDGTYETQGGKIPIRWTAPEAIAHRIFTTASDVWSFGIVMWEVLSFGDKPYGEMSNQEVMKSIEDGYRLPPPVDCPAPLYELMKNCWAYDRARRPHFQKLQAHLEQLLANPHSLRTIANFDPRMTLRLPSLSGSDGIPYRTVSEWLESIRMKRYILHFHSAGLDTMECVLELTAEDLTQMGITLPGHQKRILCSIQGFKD
Chain of MAP2K3 (human) (P46734 whole entry, looked up): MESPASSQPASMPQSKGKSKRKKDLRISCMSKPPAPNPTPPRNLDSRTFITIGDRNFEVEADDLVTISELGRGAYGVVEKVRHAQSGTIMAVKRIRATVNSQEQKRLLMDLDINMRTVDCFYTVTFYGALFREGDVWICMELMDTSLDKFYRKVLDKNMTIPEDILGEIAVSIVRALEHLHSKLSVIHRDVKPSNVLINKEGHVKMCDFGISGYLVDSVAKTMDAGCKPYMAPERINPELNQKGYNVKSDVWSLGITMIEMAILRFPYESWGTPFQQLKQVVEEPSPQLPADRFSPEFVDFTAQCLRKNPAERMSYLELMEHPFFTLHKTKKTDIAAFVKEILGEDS
Chain of PRKAA1 (human) (Q13131 whole entry, looked up): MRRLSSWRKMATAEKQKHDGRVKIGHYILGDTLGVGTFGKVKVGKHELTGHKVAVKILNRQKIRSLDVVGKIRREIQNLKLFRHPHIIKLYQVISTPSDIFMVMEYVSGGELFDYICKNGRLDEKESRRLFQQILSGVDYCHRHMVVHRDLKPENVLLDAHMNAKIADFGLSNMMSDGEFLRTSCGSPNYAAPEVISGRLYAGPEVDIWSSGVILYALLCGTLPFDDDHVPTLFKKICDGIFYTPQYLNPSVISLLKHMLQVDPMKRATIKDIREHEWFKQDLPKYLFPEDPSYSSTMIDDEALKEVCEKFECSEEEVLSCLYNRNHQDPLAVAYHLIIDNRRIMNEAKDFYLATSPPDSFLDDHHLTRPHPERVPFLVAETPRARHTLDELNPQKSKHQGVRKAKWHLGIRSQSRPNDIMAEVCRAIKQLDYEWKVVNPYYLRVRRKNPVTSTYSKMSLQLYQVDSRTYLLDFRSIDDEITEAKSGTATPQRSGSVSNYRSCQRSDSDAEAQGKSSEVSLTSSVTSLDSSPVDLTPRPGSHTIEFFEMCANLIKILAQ

`Cc1cc(NC(=O)c2cccc(NC(=O)/C=C/CN(C)C)c2)ccc1Nc1nccc(-c2cccnc2)n1` was tested, and the kinase still bound, per cent of control (MKNK2 (human); compound 1.0 µM) was 6.8%, the kinase still bound, per cent of control ([1]; compound 1.0 µM) was 100% and the kinase still bound, per cent of control (ADCK4 (human); compound 1.0 µM) was 93%. The kinase still bound, per cent of control (DDR1 (human); compound 1.0 µM) was 93%, the kinase still bound, per cent of control (MAP3K4 (human); compound 1.0 µM) was 100% and the kinase still bound, per cent of control (ACVR2A (human); compound 1.0 µM) was 100%. The kinase still bound, per cent of control (EPHA1 (human); compound 1.0 µM) was 99%, the kinase still bound, per cent of control (CPK1 (P.falciparum); compound 1.0 µM) was 100% and the kinase still bound, per cent of control (CDK2 (human); compound 1.0 µM) was 77%. The kinase still bound, per cent of control (BMX (human); compound 1.0 µM) was 100%, the kinase still bound, per cent of control (LATS2 (human); compound 1.0 µM) was 74% and the kinase still bound, per cent of control (MAP3K1 (human); compound 1.0 µM) was 100%. The kinase still bound, per cent of control (EPHA4 (human); compound 1.0 µM) was 100%, the kinase still bound, per cent of control (LTK (human); compound 1.0 µM) was 100% and the kinase still bound, per cent of control (CDKL1 (human); compound 1.0 µM) was 88%. The kinase still bound, per cent of control ([2]; compound 1.0 µM) was 90%, the kinase still bound, per cent of control (OXSR1 (human); compound 1.0 µM) was 89% and the kinase still bound, per cent of control (ZAP70 (human); compound 1.0 µM) was 79%. For the same molecule, the kinase still bound, per cent of control (CDK4 CCND1 (human); compound 1.0 µM) was 92%, the kinase still bound, per cent of control (PRKACB (human); compound 1.0 µM) was 76% and the kinase still bound, per cent of control (CaMK1 (human); compound 1.0 µM) was 81%. It also gave a kinase still bound, per cent of control ([3]; compound 1.0 µM) of 58%, a kinase still bound, per cent of control (RPS6KA4 KD2 (human); compound 1.0 µM) of 74% and a kinase still bound, per cent of control (TNK1 (human); compound 1.0 µM) of 60%. For the same molecule, the kinase still bound, per cent of control (PTK6 (human); compound 1.0 µM) was 100%, the kinase still bound, per cent of control (CDKL5 (human); compound 1.0 µM) was 100% and the kinase still bound, per cent of control (PIK3C2B (human); compound 1.0 µM) was 100%. It also gave a kinase still bound, per cent of control (RPS6KA5 KD1 (human); compound 1.0 µM) of 100%, a kinase still bound, per cent of control (EPHB4 (human); compound 1.0 µM) of 100% and a kinase still bound, per cent of control (MAP2K3 (human); compound 1.0 µM) of 95%. The kinase still bound, per cent of control (PIK3CG (human); compound 1.0 µM) was 100%, the kinase still bound, per cent of control (RPS6KA5 KD2 (human); compound 1.0 µM) was 97% and the kinase still bound, per cent of control (MAPK15 (human); compound 1.0 µM) was 100%. For the same molecule, the kinase still bound, per cent of control (RPS6KA6 KD2 (human); compound 1.0 µM) was 76%, the kinase still bound, per cent of control (CDK4 CCND3 (human); compound 1.0 µM) was 60% and the kinase still bound, per cent of control (YSK4 (human); compound 1.0 µM) was 65%. It also gave a kinase still bound, per cent of control (EPHA3 (human); compound 1.0 µM) of 67%, a kinase still bound, per cent of control (IRAK3 (human); compound 1.0 µM) of 85% and a kinase still bound, per cent of control (FLT4 (human); compound 1.0 µM) of 100%. It also gave a kinase still bound, per cent of control (PRKAA1 (human); compound 1.0 µM) of 100%, a kinase still bound, per cent of control (EPHB3 (human); compound 1.0 µM) of 100% and a kinase still bound, per cent of control (SGK110 (human); compound 1.0 µM) of 95%.

`Cc1ccc(NC(=O)c2ccc(NC(=O)/C=C/CN(C)C)cc2)cc1Nc1nccc(-c2cccnc2)n1` was tested, and the kinase still bound, per cent of control (MKNK2 (human); compound 10.0 µM) was 4.2%, the kinase still bound, per cent of control ([1]; compound 10.0 µM) was 96% and the kinase still bound, per cent of control (ADCK4 (human); compound 10.0 µM) was 60%. For the same molecule, the kinase still bound, per cent of control (DDR1 (human); compound 10.0 µM) was 0.15%, the kinase still bound, per cent of control (MAP3K4 (human); compound 10.0 µM) was 100% and the kinase still bound, per cent of control (ACVR2A (human); compound 10.0 µM) was 82%. It also gave a kinase still bound, per cent of control (EPHA1 (human); compound 10.0 µM) of 91%, a kinase still bound, per cent of control (CPK1 (P.falciparum); compound 10.0 µM) of 86% and a kinase still bound, per cent of control (CDK2 (human); compound 10.0 µM) of 95%. For the same molecule, the kinase still bound, per cent of control (BMX (human); compound 10.0 µM) was 100%, the kinase still bound, per cent of control (LATS2 (human); compound 10.0 µM) was 100% and the kinase still bound, per cent of control (MAP3K1 (human); compound 10.0 µM) was 100%. For the same molecule, the kinase still bound, per cent of control (EPHA4 (human); compound 10.0 µM) was 100%, the kinase still bound, per cent of control (LTK (human); compound 10.0 µM) was 100% and the kinase still bound, per cent of control (CDKL1 (human); compound 10.0 µM) was 100%. The kinase still bound, per cent of control ([2]; compound 10.0 µM) was 61%, the kinase still bound, per cent of control (OXSR1 (human); compound 10.0 µM) was 82% and the kinase still bound, per cent of control (ZAP70 (human); compound 10.0 µM) was 56%. The kinase still bound, per cent of control (CDK4 CCND1 (human); compound 10.0 µM) was 100%, the kinase still bound, per cent of control (PRKACB (human); compound 10.0 µM) was 100% and the kinase still bound, per cent of control (CaMK1 (human); compound 10.0 µM) was 75%. For the same molecule, the kinase still bound, per cent of control ([3]; compound 10.0 µM) was 33%, the kinase still bound, per cent of control (RPS6KA4 KD2 (human); compound 10.0 µM) was 64% and the kinase still bound, per cent of control (TNK1 (human); compound 10.0 µM) was 8.7%. The kinase still bound, per cent of control (PTK6 (human); compound 10.0 µM) was 85%, the kinase still bound, per cent of control (CDKL5 (human); compound 10.0 µM) was 100% and the kinase still bound, per cent of control (PIK3C2B (human); compound 10.0 µM) was 93%. The kinase still bound, per cent of control (RPS6KA5 KD1 (human); compound 10.0 µM) was 90%, the kinase still bound, per cent of control (EPHB4 (human); compound 10.0 µM) was 100% and the kinase still bound, per cent of control (MAP2K3 (human); compound 10.0 µM) was 50%. For the same molecule, the kinase still bound, per cent of control (PIK3CG (human); compound 10.0 µM) was 68%, the kinase still bound, per cent of control (RPS6KA5 KD2 (human); compound 10.0 µM) was 100% and the kinase still bound, per cent of control (MAPK15 (human); compound 10.0 µM) was 100%. For the same molecule, the kinase still bound, per cent of control (RPS6KA6 KD2 (human); compound 10.0 µM) was 67%, the kinase still bound, per cent of control (CDK4 CCND3 (human); compound 10.0 µM) was 100% and the kinase still bound, per cent of control (YSK4 (human); compound 10.0 µM) was 28%. It also gave a kinase still bound, per cent of control (EPHA3 (human); compound 10.0 µM) of 83%, a kinase still bound, per cent of control (IRAK3 (human); compound 10.0 µM) of 28% and a kinase still bound, per cent of control (FLT4 (human); compound 10.0 µM) of 88%. It also gave a kinase still bound, per cent of control (PRKAA1 (human); compound 10.0 µM) of 73%, a kinase still bound, per cent of control (EPHB3 (human); compound 10.0 µM) of 100% and a kinase still bound, per cent of control (SGK110 (human); compound 10.0 µM) of 85%.
